Reference: patent publication US7732424B2, “Purine derivatives and methods of use thereof” (Inotek Pharmaceuticals Corporation, priority 2005, dated 2010)
Read-outs that look alike come from different tables or passages of the source. Each block holds one compound with its values, some of them ahead of it.

Key:
[1] = target: T1, human recombinant A2A adenosine receptor (Homo sapiens, UniProt P29274); test: Adenosine A2A receptor binding, displacement of [^3H]NECA in transfected CHO cells
T1 construct: expressed in transfected cells
T1 sequence (P29274 whole entry): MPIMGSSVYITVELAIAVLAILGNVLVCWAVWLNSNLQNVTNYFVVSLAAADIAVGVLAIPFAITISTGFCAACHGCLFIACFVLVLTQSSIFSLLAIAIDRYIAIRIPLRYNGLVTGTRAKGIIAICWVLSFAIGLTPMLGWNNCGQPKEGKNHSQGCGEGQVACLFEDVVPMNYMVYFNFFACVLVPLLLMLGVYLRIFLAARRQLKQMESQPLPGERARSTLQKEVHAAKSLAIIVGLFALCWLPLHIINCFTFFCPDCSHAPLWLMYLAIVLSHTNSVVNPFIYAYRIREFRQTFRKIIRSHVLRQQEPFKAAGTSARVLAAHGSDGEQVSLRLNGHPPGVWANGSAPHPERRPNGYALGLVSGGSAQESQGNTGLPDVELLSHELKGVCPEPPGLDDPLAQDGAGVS
Protocol: (§1) Membranes for radioligand binding experiments were prepared from fresh or frozen cells as described in Klotz et al., Naunyn-Schmiedeberg's Arch. Pharmacol., 357:1-9 (1998). The cell suspension was then homogenized in ice-cold hypotonic buffer (5 mM Tris/HCl, 2 mM EDTA, pH 7.4) and the resultant homogenate was spun for 10 minutes (4° C.) at 1,000 g. The membranes were then sedimented from the supernatant for 30 minutes at 100,000 g and resuspended in 50 mM Tris/HCl buffer pH 7.4 (for A3 adenosine receptors: 50 mM Tris/HCl, 10 mM MgCl2, 1 mM EDTA, pH 8.25), frozen in liquid nitrogen at a protein concentration of 1-3 mg/mL and stored at −80° C.
(§2) Nonspecific binding was determined in the presence of 100 μM R-PIA and 1 mM theophylline, respectively. For details see Klotz et al., Naunyn-Schmiedeberg's Arch. Pharmacol., 357:1-9, 1998. All binding data were calculated by non-linear curve fitting using the program SCTFIT (De Lean et al., Mol. Pharm. 1982, 21:5-16).

[2] = tested on: New Zealand white rabbits; test: Effect on intraocular pressure (IOP) in rabbits; type: in vivo, rabbit
Protocol: The effect of an illustrative Purine Derivative on intraocular pressure (IOP) was examined in New Zealand white rabbits. New Zealand white rabbits undergo a circadian change in intraocular pressure, such that lowest pressure values occur in the early morning and peak pressure values occur in the afternoon. […] Consistency of measurements is indicated by the fact the intraocular pressure at t=−23 hours and t=25 hours is essentially the same (see FIGS. 1-5).
One rabbit was administered with each each dose level. […] Thus, Compound I′-1 was administered when the level of intraocular pressure was low relative to other timepoints during the day and night.

[3] = target: T2, human recombinant A3 adenosine receptor (Homo sapiens, UniProt P0DMS8); test: Adenosine A3 receptor binding, displacement of [^3H]NECA in transfected HEK cells; conditions: displacement of specific [^3H]NECA binding, geometric mean
T2 construct: expressed in transfected cells
T2 sequence (P0DMS8 1-318): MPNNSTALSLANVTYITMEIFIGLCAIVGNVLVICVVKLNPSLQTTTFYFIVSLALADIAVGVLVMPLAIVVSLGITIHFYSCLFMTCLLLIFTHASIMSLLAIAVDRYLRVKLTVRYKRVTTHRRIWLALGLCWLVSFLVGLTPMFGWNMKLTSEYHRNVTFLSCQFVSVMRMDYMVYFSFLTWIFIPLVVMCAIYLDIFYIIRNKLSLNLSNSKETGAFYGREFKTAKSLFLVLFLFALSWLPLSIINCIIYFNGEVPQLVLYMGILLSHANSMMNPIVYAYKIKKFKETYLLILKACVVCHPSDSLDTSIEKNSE
Protocol: as §1, §2

[4] = target: human recombinant A1 adenosine receptor (Homo sapiens, UniProt P30542); test: Adenosine A1 receptor binding, displacement of [^3H]CCPA in transfected CHO cells
human recombinant A1 adenosine receptor, sequence (P30542 whole entry): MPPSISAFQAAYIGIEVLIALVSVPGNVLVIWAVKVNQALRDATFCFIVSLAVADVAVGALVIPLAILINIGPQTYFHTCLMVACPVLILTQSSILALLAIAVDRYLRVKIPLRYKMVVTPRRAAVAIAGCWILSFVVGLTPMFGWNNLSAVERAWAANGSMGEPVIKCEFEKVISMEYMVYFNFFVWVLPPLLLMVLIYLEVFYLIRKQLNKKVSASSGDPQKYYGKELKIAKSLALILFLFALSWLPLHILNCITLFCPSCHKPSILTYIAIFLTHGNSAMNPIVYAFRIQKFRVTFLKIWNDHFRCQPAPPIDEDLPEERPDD
Protocol: as §1, §2

male Sprague-Dawley rats = test: Effect on core body temperature in rats; type: in vivo; design: Rectal Temperature: unit not given here; conditions: for Behavior / Rectal Temperature / Respiratory Rate / Respiration Rate: rat at 13° C., 15 mg/kg JV then 20 mg/mL at 1 mL/h
Protocol: Their rectal temperature, respiratory rate, and behavior were recorded following 5 min, 10 min, 20 min, 30 min, 1 h, 1.5 h, 2 h, 2.5 h, 3 h, 3.5 h, and 4 h.

Compound: OC[C@H]1O[C@@H](n2cnc3c(NC4(CO)CCCC4)ncnc32)[C@H](O)[C@@H]1O [I′-1]
Ki [1]: 28.1 µM
Effect on intraocular pressure (conclusion) ([2]; FIGS. 1-5): reduces an animal's intraocular pressure
Time of recovery of intraocular pressure values to normal levels ([2]; administered concentration 0.3 mg/mL (FIG. 1)): ~6 h
Time of recovery of intraocular pressure values to normal levels ([2]; administered concentration 30 mg/mL (FIG. 5)): > 7 h
Intraocular pressure course after administration ([2]; one drop to one eye at t=0 hours, FIGS. 1-5): the intraocular pressure did not increase to the normal day values
Eye irritation ([2]; topical ocular, 0.3-30.0 mg/mL): No eye irritation was observed in any animal
Ki [3]: 7.7 µM
Ki [4]: 0.00677 µM
Behavior (male Sprague-Dawley rats; Animal #1, 0 min): normal
Rectal Temperature (male Sprague-Dawley rats; Animal #1, 0 min): 38
Respiratory Rate (male Sprague-Dawley rats; Animal #1, 0 min): 210 min⁻¹
Behavior (male Sprague-Dawley rats; Animal #1, 5 min): sleep/
Rectal Temperature (male Sprague-Dawley rats; Animal #1, 5 min): 38
Behavior (male Sprague-Dawley rats; Animal #1, 10 min): sleep/
Rectal Temperature (male Sprague-Dawley rats; Animal #1, 10 min): 37
Respiratory Rate (male Sprague-Dawley rats; Animal #1, 10 min): 69 min⁻¹
Behavior (male Sprague-Dawley rats; Animal #1, 20 min): sleep
Rectal Temperature (male Sprague-Dawley rats; Animal #1, 20 min): 36
Respiratory Rate (male Sprague-Dawley rats; Animal #1, 20 min): 66 min⁻¹
Behavior (male Sprague-Dawley rats; Animal #1, 30 min): sleep
Rectal Temperature (male Sprague-Dawley rats; Animal #1, 30 min): 36
Respiratory Rate (male Sprague-Dawley rats; Animal #1, 30 min): 75 min⁻¹
Behavior (male Sprague-Dawley rats; Animal #1, 1 h): sleep
Rectal Temperature (male Sprague-Dawley rats; Animal #1, 1 h): 32
Respiration Rate (male Sprague-Dawley rats; Animal #1, 1 h): 42 min⁻¹
Behavior (male Sprague-Dawley rats; Animal #1, 1.5 h): sleep
Rectal Temperature (male Sprague-Dawley rats; Animal #1, 1.5 h): 29
Respiration Rate (male Sprague-Dawley rats; Animal #1, 1.5 h): 45 min⁻¹
Behavior (male Sprague-Dawley rats; Animal #1, 2 h): sleep
Rectal Temperature (male Sprague-Dawley rats; Animal #1, 2 h): 27
Respiration Rate (male Sprague-Dawley rats; Animal #1, 2 h): 54 min⁻¹
Behavior (male Sprague-Dawley rats; Animal #1, 2.5 h): sleep
Rectal Temperature (male Sprague-Dawley rats; Animal #1, 2.5 h): 25
Respiration Rate (male Sprague-Dawley rats; Animal #1, 2.5 h): 51 min⁻¹
Behavior (male Sprague-Dawley rats; Animal #1, 3 h): sleep
Rectal Temperature (male Sprague-Dawley rats; Animal #1, 3 h): 24
Respiration Rate (male Sprague-Dawley rats; Animal #1, 3 h): 42 min⁻¹
Behavior (male Sprague-Dawley rats; Animal #1, 3.5 h): sleep
Rectal Temperature (male Sprague-Dawley rats; Animal #1, 3.5 h): 23
Respiration Rate (male Sprague-Dawley rats; Animal #1, 3.5 h): 42 min⁻¹
Behavior (male Sprague-Dawley rats; Animal #1, 4 h): sleep
Rectal Temperature (male Sprague-Dawley rats; Animal #1, 4 h): 21
Respiration Rate (male Sprague-Dawley rats; Animal #1, 4 h): 42 min⁻¹
Behavior (male Sprague-Dawley rats; Animal #2, 0 min): normal
Rectal Temperature (male Sprague-Dawley rats; Animal #2, 0 min): 39
Respiratory Rate (male Sprague-Dawley rats; Animal #2, 0 min): 220 min⁻¹
Behavior (male Sprague-Dawley rats; Animal #2, 5 min): normal
Rectal Temperature (male Sprague-Dawley rats; Animal #2, 5 min): 39
Respiratory Rate (male Sprague-Dawley rats; Animal #2, 5 min): 99 min⁻¹
Behavior (male Sprague-Dawley rats; Animal #2, 10 min): sleep/
Rectal Temperature (male Sprague-Dawley rats; Animal #2, 10 min): 38
Respiratory Rate (male Sprague-Dawley rats; Animal #2, 10 min): 84 min⁻¹
Behavior (male Sprague-Dawley rats; Animal #2, 20 min): sleep/
Rectal Temperature (male Sprague-Dawley rats; Animal #2, 20 min): 37
Respiratory Rate (male Sprague-Dawley rats; Animal #2, 20 min): 57 min⁻¹
Behavior (male Sprague-Dawley rats; Animal #2, 30 min): sleep/
Rectal Temperature (male Sprague-Dawley rats; Animal #2, 30 min): 37
Respiratory Rate (male Sprague-Dawley rats; Animal #2, 30 min): 51 min⁻¹
Behavior (male Sprague-Dawley rats; Animal #2, 1 h): sleep
Rectal Temperature (male Sprague-Dawley rats; Animal #2, 1 h): 33
Respiration Rate (male Sprague-Dawley rats; Animal #2, 1 h): 36 min⁻¹
Behavior (male Sprague-Dawley rats; Animal #2, 1.5 h): sleep
Rectal Temperature (male Sprague-Dawley rats; Animal #2, 1.5 h): 30
Respiration Rate (male Sprague-Dawley rats; Animal #2, 1.5 h): 36 min⁻¹
Behavior (male Sprague-Dawley rats; Animal #2, 2 h): sleep
Rectal Temperature (male Sprague-Dawley rats; Animal #2, 2 h): 28
Respiration Rate (male Sprague-Dawley rats; Animal #2, 2 h): 36 min⁻¹
Behavior (male Sprague-Dawley rats; Animal #2, 2.5 h): sleep
Rectal Temperature (male Sprague-Dawley rats; Animal #2, 2.5 h): 27
Respiration Rate (male Sprague-Dawley rats; Animal #2, 2.5 h): 30 min⁻¹
Behavior (male Sprague-Dawley rats; Animal #2, 3 h): sleep
Rectal Temperature (male Sprague-Dawley rats; Animal #2, 3 h): 26
Respiration Rate (male Sprague-Dawley rats; Animal #2, 3 h): 27 min⁻¹
Behavior (male Sprague-Dawley rats; Animal #2, 3.5 h): sleep
Rectal Temperature (male Sprague-Dawley rats; Animal #2, 3.5 h): 25
Respiration Rate (male Sprague-Dawley rats; Animal #2, 3.5 h): 24 min⁻¹
Behavior (male Sprague-Dawley rats; Animal #2, 4 h): sleep
Rectal Temperature (male Sprague-Dawley rats; Animal #2, 4 h): 25
Respiration Rate (male Sprague-Dawley rats; Animal #2, 4 h): 27 min⁻¹
Effect on core body temperature (conclusion) (male Sprague-Dawley rats; rats, Tables 3A and 3B): reduces an animal's core body temperature
Survival of the animals (male Sprague-Dawley rats; two rats, 15 mg/kg JV then 20 mg/mL at 1 mL/h for 4 hours): Both animals survived the experiment

Ki [1]: 24 µM
Ki [3]: 5.96 µM
Ki [4]: 0.00647 µM
Compound: OC[C@H]1O[C@@H](n2cnc3c(NC4(CO)CCCC4)nc(Cl)nc32)[C@H](O)[C@@H]1O [I′-19]

Compound: OC[C@H]1O[C@@H](n2cnc3c(NC4CCCC4)nc(Cl)nc32)[C@H](O)[C@@H]1O [[^3H]CCPA, 2-chloro-N^6-[^3H]cyclopentyladenosine, reference compound]
Ki ([1]; displacement of specific [^3H]NECA binding, CHO cells, geometric mean, read-out: Ki(A2A)): 2.27 µM
